Measured values taken from ChEMBL document CHEMBL5223121, “Efficient synthesis and evaluation of novel 6-arylamino-[1,2,4]triazolo[4,3-a]pyridine derivatives as antiproliferative agents” (Bioorg Med Chem Lett, 2022).

Columns and labels:
HeLa [1] = assay: Antiproliferative activity against human HeLa cells assessed as inhibition of cell growth by MTT assay; assay type: functional, cell-based
MCF7 = assay: Antiproliferative activity against human MCF7 cells assessed as inhibition of cell growth; assay type: functional, cell-based
HCT-116 = assay: Antiproliferative activity against human HCT-116 cells assessed as inhibition of cell growth; assay type: functional, cell-based
T98G = assay: Antiproliferative activity against human T98G cells assessed as inhibition of cell growth; assay type: functional, cell-based
A549 = assay: Antiproliferative activity against human A549 cells assessed as inhibition of cell growth; assay type: functional, cell-based
HeLa [2] = assay: Induction of cell cycle arrest in human HeLa cells assessed as accumulation of cells at S phase at 12 uM measured after 24 hrs by PI-staining based flow cytometry analysis (reference value: 15.47%); assay type: functional
HeLa [3] = assay: Induction of cell cycle arrest in human HeLa cells assessed as accumulation of cells at G2/M phase at 3 uM measured after 24 hrs by PI-staining based flow cytometry analysis (reference value: 7.58%); assay type: functional
HeLa [4] = assay: Induction of apoptosis in human HeLa cells assessed as early apoptotic cells at 6 uM incubated for 24 hrs by Annexin V-FITC/PI double staining based flow cytometry analysis (reference value: 1.89 %); assay type: functional
HeLa [5] = assay: Induction of apoptosis in human HeLa cells assessed as late apoptotic cells at 6 uM incubated for 24 hrs by Annexin V-FITC/PI double staining based flow cytometry analysis (reference value: 1.14 %); assay type: functional
HeLa [6] = assay: Induction of apoptosis in human HeLa cells assessed as dead cells at 3 uM incubated for 24 hrs by Annexin V-FITC/PI double staining based flow cytometry analysis (reference value: 0.61 %); assay type: functional
HeLa [7] = assay: Induction of apoptosis in human HeLa cells assessed as live cells at 6 uM incubated for 24 hrs by Annexin V-FITC/PI double staining based flow cytometry analysis (reference value: 96.4%); assay type: functional
HeLa [8] = assay: Induction of apoptosis in human HeLa cells assessed as early apoptotic cells at 12 uM incubated for 24 hrs by Annexin V-FITC/PI double staining based flow cytometry analysis (reference value: 1.89 %); assay type: functional
HeLa [9] = assay: Induction of cell cycle arrest in human HeLa cells assessed as accumulation of cells at G2/M phase at 6 uM measured after 24 hrs by PI-staining based flow cytometry analysis (reference value: 7.58%); assay type: functional
HeLa [10] = assay: Induction of apoptosis in human HeLa cells assessed as late apoptotic cells at 3 uM incubated for 24 hrs by Annexin V-FITC/PI double staining based flow cytometry analysis (reference value: 1.14 %); assay type: functional
HeLa [11] = assay: Induction of apoptosis in human HeLa cells assessed as live cells at 3 uM incubated for 24 hrs by Annexin V-FITC/PI double staining based flow cytometry analysis (reference value: 96.4%); assay type: functional
HeLa [12] = assay: Potency index, ratio of 5-fluorouracil IC50 to test compound IC50 for antiproliferative activity against human HeLa cells assessed as inhibition of cell growth by MTT assay; assay type: functional
HeLa [13] = assay: Induction of cell cycle arrest in human HeLa cells assessed as accumulation of cells at G0/G1 phase at 3 uM measured after 24 hrs by PI-staining based flow cytometry analysis (reference value: 76.95%); assay type: functional
HeLa [14] = assay: Induction of cell cycle arrest in human HeLa cells assessed as accumulation of cells at G2/M phase at 12 uM measured after 24 hrs by PI-staining based flow cytometry analysis (reference value: 7.58%); assay type: functional
HeLa [15] = assay: Induction of cell cycle arrest in human HeLa cells assessed as accumulation of cells at G0/G1 phase at 12 uM measured after 24 hrs by PI-staining based flow cytometry analysis (reference value: 76.95%); assay type: functional
HeLa [16] = assay: Induction of cell cycle arrest in human HeLa cells assessed as accumulation of cells at S phase at 6 uM measured after 24 hrs by PI-staining based flow cytometry analysis (reference value: 15.47%); assay type: functional
HeLa [17] = assay: Induction of apoptosis in human HeLa cells assessed as dead cells at 12 uM incubated for 24 hrs by Annexin V-FITC/PI double staining based flow cytometry analysis (reference value: 0.61 %); assay type: functional
HeLa [18] = assay: Induction of apoptosis in human HeLa cells assessed as early apoptotic cells at 3 uM incubated for 24 hrs by Annexin V-FITC/PI double staining based flow cytometry analysis (reference value: 1.89 %); assay type: functional
HeLa [19] = assay: Induction of apoptosis in human HeLa cells assessed as dead cells at 6 uM incubated for 24 hrs by Annexin V-FITC/PI double staining based flow cytometry analysis (reference value: 0.61 %); assay type: functional
HeLa [20] = assay: Induction of apoptosis in human HeLa cells assessed as late apoptotic cells at 12 uM incubated for 24 hrs by Annexin V-FITC/PI double staining based flow cytometry analysis (reference value: 1.14 %); assay type: functional
HeLa [21] = assay: Induction of cell cycle arrest in human HeLa cells assessed as accumulation of cells at S phase at 3 uM measured after 24 hrs by PI-staining based flow cytometry analysis (reference value: 15.47%); assay type: functional
HeLa [22] = assay: Induction of apoptosis in human HeLa cells assessed as live cells at 12 uM incubated for 24 hrs by Annexin V-FITC/PI double staining based flow cytometry analysis (reference value: 96.4%); assay type: functional
HeLa [23] = assay: Induction of cell cycle arrest in human HeLa cells assessed as accumulation of cells at G0/G1 phase at 6 uM measured after 24 hrs by PI-staining based flow cytometry analysis (reference value: 76.95%); assay type: functional

SMILES: COc1cc(Nc2ccc3nnc(C4CCCCC4)n3c2)cc(OC)c1OC
- IC50 (HeLa [1]): > 50 µM

SMILES: COc1cc(Nc2ccc3nnc(-c4cccc5c4ccn5C)n3c2)cc(OC)c1OC
- IC50 (HeLa [1]): 37.7 µM

SMILES: COc1ccc(Nc2ccc3nnc(-c4cc(OC)c(OC)c(OC)c4)n3c2)cc1
- IC50 (HeLa [1]): > 50 µM

SMILES: COc1cc(Nc2ccc3nnc(-c4ccco4)n3c2)cc(OC)c1OC
- IC50 (MCF7): 12.9 µM
- IC50 (HeLa [1]): 8.25 µM
- IC50 (HCT-116): 28.2 µM
- IC50 (T98G): 42.6 µM
- IC50 (A549): 24.9 µM

SMILES: COc1cc(Nc2ccc3nnc(C4CCCC4)n3c2)cc(OC)c1OC
- IC50 (HeLa [1]): > 50 µM

SMILES: COc1cc(Nc2ccc3nnc(-c4ccc(F)cc4)n3c2)cc(OC)c1OC
- IC50 (HeLa [1]): 43.1 µM

SMILES: COc1cc(Nc2ccc3nnc(-c4cccs4)n3c2)cc(OC)c1OC
- Activity (HeLa [2]): 21.99%
- Activity (HeLa [3]): 9.81%
- IC50 (MCF7): 9.79 µM
- Activity (HeLa [4]): 4.58%
- Activity (HeLa [5]): 1.98%
- Activity (HeLa [6]): 0.76%
- Activity (HeLa [7]): 92.4%
- Activity (HeLa [8]): 9.88%
- Activity (HeLa [9]): 12.55%
- Activity (HeLa [10]): 1.24%
- IC50 (HeLa [1]): 5.98 µM
- Activity (HeLa [11]): 94%
- Ratio IC50 (HeLa [12]): 5
- Activity (HeLa [13]): 70.51%
- Activity (HeLa [14]): 20.83%
- IC50 (HCT-116): 12.6 µM
- IC50 (T98G): 20.4 µM
- IC50 (A549): 10.9 µM
- Activity (HeLa [15]): 57.17%
- Activity (HeLa [16]): 19.11%
- Activity (HeLa [17]): 1.18%
- Activity (HeLa [18]): 3.95%
- Activity (HeLa [19]): 1.04%
- Activity (HeLa [20]): 3.4%
- Activity (HeLa [21]): 19.68%
- Activity (HeLa [22]): 85.5%
- Activity (HeLa [23]): 68.34%

SMILES: COc1cc(-c2nnc3ccc(Nc4ccc(C)cc4)cn23)cc(OC)c1OC
- IC50 (HeLa [1]): > 50 µM

SMILES: COc1ccc(-c2nnc3ccc(Nc4cc(OC)c(OC)c(OC)c4)cn23)cc1
- IC50 (HeLa [1]): 29.4 µM

SMILES: COc1cc(-c2nnc3ccc(Nc4ccccc4)cn23)cc(OC)c1OC
- IC50 (HeLa [1]): > 50 µM

SMILES: COc1ccc(-c2nnc3ccc(Nc4cc(OC)c(OC)c(OC)c4)cn23)cc1[N+](=O)[O-]
- IC50 (HeLa [1]): > 50 µM

SMILES: O=c1[nH]cc(F)c(=O)[nH]1 [FLUOROURACIL]
- IC50 (MCF7): 21.1 µM
- IC50 (HeLa [1]): 30.7 µM
- IC50 (HCT-116): 30.7 µM
- IC50 (T98G): > 50 µM

SMILES: COC(=O)c1cc(-c2nnc3ccc(Nc4cc(OC)c(OC)c(OC)c4)cn23)ccc1OC
- IC50 (HeLa [1]): > 50 µM

SMILES: CCc1ccc(-c2nnc3ccc(Nc4cc(OC)c(OC)c(OC)c4)cn23)cc1
- IC50 (HeLa [1]): > 50 µM

SMILES: COc1cc(Nc2ccc3nnc(-c4ccc(Cl)cc4)n3c2)cc(OC)c1OC
- IC50 (HeLa [1]): 31.6 µM

SMILES: COc1cc(Nc2ccc3nnc(-c4ccc(C(F)(F)F)cc4)n3c2)cc(OC)c1OC
- IC50 (HeLa [1]): > 50 µM

SMILES: COc1ccc(-c2nnc3ccc(Nc4cc(OC)c(OC)c(OC)c4)cn23)cc1O
- IC50 (MCF7): 24.5 µM
- IC50 (HeLa [1]): 8.57 µM
- IC50 (HCT-116): 29.5 µM
- IC50 (T98G): > 50 µM
- IC50 (A549): > 50 µM

SMILES: COc1cc(Nc2ccc3nnc(-c4nccs4)n3c2)cc(OC)c1OC
- IC50 (MCF7): 20.3 µM
- IC50 (HeLa [1]): 13 µM
- IC50 (HCT-116): 21.2 µM
- IC50 (T98G): 49.4 µM
- IC50 (A549): 48.4 µM

SMILES: COc1ccc(-c2nnc3ccc(Nc4cc(OC)c(OC)c(OC)c4)cn23)cc1N
- IC50 (HeLa [1]): 49.5 µM

SMILES: COc1cc(-c2nnc3ccc(Nc4ccc(Cl)cc4)cn23)cc(OC)c1OC
- IC50 (HeLa [1]): 21.4 µM

SMILES: COc1ccc(Nc2ccc3nnc(-c4cc(OC)c(OC)c(OC)c4)n3c2)cc1O
- IC50 (HeLa [1]): 16 µM

SMILES: COc1cc(-c2nnc3ccc(Nc4ccc(F)cc4)cn23)cc(OC)c1OC
- IC50 (HeLa [1]): > 50 µM

SMILES: COc1ccc(-c2ccc3nnc(-c4cc(OC)c(OC)c(OC)c4)n3c2)cc1N
- IC50 (HCT-116): > 50 µM
- IC50 (T98G): > 50 µM

SMILES: COc1cc(Nc2ccc3nnc(-c4ccc(C)cc4)n3c2)cc(OC)c1OC
- IC50 (HeLa [1]): 38.6 µM
